# Test results reported in patent US4644012A, “Treatment for osteoporosis” (Takeda Chemical Industries, Ltd., priority 1983, dated 1987).
# Ends that are not written are not given here.
# What was measured:
# [1] = system: rat fetal long bone; assay: Potentiating effect on the bone resorption inhibiting action of calcitonin, PTH-stimulated rat fetal long bone culture (45Ca release); assay type: cell-based, Sprague-Dawley rat; settings: for potentiation of the inhibitory action of calcitonin on PTH-stimulated bone resorption (in words): calcitonin 3 mU/ml, compound 25 μg/ml
# Description: (§1) Determination of bone resorption was performed by the method of Raisz [J. Clin. Invest. 44, 103-116 (1965)]. Thus, a Sprague-Dawley rat on the 19th day of pregnancy was subcutaneously injected with 50μ Ci of ^45 Ca (isotope of calcium, CaCl2 solution), and was laparotomized on the following day. The embryos were aseptically taken out, the forelimbs (radius and ulna) were cut off from the trunk under a binocular dissecting microscope, and the connective tissue and cartilage were removed as much as possible to prepare bone samples. Each bone sample was preincubated at 37° C. for 24 hours in 0.6 ml of the medium containing 2 mg/ml of bovine serum albumin in BGJb medium (Fitton-Jackson modification) [GIBCO Laboratories, Grand Island, N.Y. 14072 U.S.A.]. Then, the sample was further incubated for 3 days in the same medium as above in which 10 μg/ml of compound A had been incorporated. Then, the radioactivity of ^45 Ca in the medium and that of ^45 Ca in the bone were measured and the percentage (%) of ^45 Ca released from the bone into the medium was calculated by the following formula. [formula]
# Potentiating effect of 7-(1-hydroxycarbonylethyl)-oxy-3-(4-hydroxyphenyl)-4H-1-benzopyran-4-one (hereinafter referred to as "compound B") and 7-(1-ethoxycarbonylethyl)-oxy-3-phenyl-4H-1-benzopyran-4-one (hereinafter referred to as "compound C") on the bone resorption inhibiting action of calcitonin in rat fetal long bone culture
# The bone samples prepared in the same manner as Test Example 1 were preincubated for 24 hours in the same medium as that prepared in Test Example 1, which contains bovine serum albumin in BGJb medium (Fitton-Jackson modification). Then, in the concomitant presence of PTH (parathyroid hormone, a bone resorption stimulant), calcitonin and compound B or compound C, the samples were further incubated for 3 days and the percentage of ^45 Ca released into the medium was calculated by means of the same formula as that in Test Example 1. […]
# [2] = system: rat fetal long bone; assay: Bone resorption inhibiting activity in rat fetal long bone culture (45Ca release); assay type: cell-based, Sprague-Dawley rat; settings: 3 days
# Description: Bone resorption inhibiting activity of 7-(1-hydroxycarbonylethyl)oxy-3-phenyl-4H-1-benzopyran-4-one (hereinafter referred to as "compound A") in rat fetal long bone culture
# as §1
# As control, the bones of the embryos from the same litter were similarly incubated in the absence of compound A for 3 days.
# [3] = system: Sprague-Dawley rats; settings: rat, in vivo
# Description: (§2) Five-week-old ICR mice and 5-week-old Sprague-Dawley rats were used in groups of 10 males and 10 females, and suspensions of compound A or compound B in olive oil were administered orally [2,500, 5,000 and 10,000 mg/kg of each compound] or subcutaneously [1,250, 2,500 and 5,000 mg/kg]. The animals were kept under observation for 14 days.
# [4] = system: ICR mice; settings: mouse, in vivo
# Description: as §2
Compound,potentiation of the inhibitory action of calcitonin on PTH-stimulated bone resorption (in words) [1],suppression of bone resorption (in words) ([2]; 10 μg/ml),"45Ca (%) released ([2]; compound 10 μg/ml, 37° C, mean ± standard deviation, six bones, control 23.6 ± 3.9, * p < 0.05 vs control)",LD50 [3],LD50 [4],"45Ca (%) released ([1]; control II group: PTH + calcitonin 3 mU/ml, no compound, 3 days, PTH alone (control I) 39.7 ± 1.5)"
"CCOC(=O)C(C)Oc1ccc2c(=O)c(-c3ccccc3)coc2c1 (stereo not drawn) [compound C, 7-(1-ethoxycarbonylethyl)-oxy-3-phenyl-4H-1-benzopyran-4-one]",potentiated the inhibitory action of calcitonin on PTH-stimulated bone resorption,–,–,–,–,–
"CC(Oc1ccc2c(=O)c(-c3ccccc3)coc2c1)C(=O)O (stereo not drawn) [compound A, 7-(1-hydroxycarbonylethyl)oxy-3-phenyl-4H-1-benzopyran-4-one]",–,suppressed bone resorption,18.5 ± 2.2%,could not be calculated,could not be calculated,–
"calcitonin: calcitonin, bone resorption inhibitor used with PTH in control II group (CGNLSTCMLGTYTQDFNKFHTFPQTAIGVGAP; ends and bridges not checked; cysteine pairing not given here; UniProt P01258 85-116, looked up) [reference compound]",–,–,–,–,–,35.9 ± 4.9%
"CC(Oc1ccc2c(=O)c(-c3ccc(O)cc3)coc2c1)C(=O)O (stereo not drawn) [compound B, 7-(1-hydroxycarbonylethyl)-oxy-3-(4-hydroxyphenyl)-4H-1-benzopyran-4-one]",potentiated the inhibitory action of calcitonin on PTH-stimulated bone resorption,–,–,could not be calculated,could not be calculated,–
